In brackets after ≈: the same amount, converted by molar mass. Several values for one entry are separate records, joined by “and”; a condition that tells them apart may be missing. Equal entries are not always repeated. Where two headings read alike, the source gives them in different places.
Tests used:
Format in all cases: cell-based
[1] = system: HIV-1 (P2); assay: Antiviral drug assay in PBMC (supernatant p24); details: for p24 testing data, single readings: listed as H2K-1001 (900); for EC50: Human immunodeficiency virus 1, PBMC
Method: Drug efficacy was determined by the production of supernatant HIV-1 p24. Drug-induced cytotoxicity was determined by the metabolic reduction of tetrazolium salts (MTS; Promega).
The antiviral drug or agent of the invention, H2K-1001 (90i), was solubilized. PBMCs, stimulated with PHA (phytohemagglutinin) for three days were employed throughout. Virus stocks (U.S. Clinical isolates) grown in PBMCs only, that past the necessary quality controls (i.e., replicate to high titer in PBMCs and meet the requirements as to genotype and phenotype) were rapidly thawed and maintained on ice until required for infection.
Virus and cell controls were included on each test plate. Virus was added after cells and drugs were mixed. Cell, drug and virus containing cultures were incubated for seven (7) days with an interim feeding at day three or four.
Supernatants were sampled at seven days for p24 determination by antigen capture ELISA. Cytotoxicity was measured by the metabolic reduction of the tetrazolium salt according to the manufacturer’s (Promega) recommendations.
The drug analysis reports from these studies are provided below in Tables 7-10. Efficacy (EC50) and viability (IC50) determinations were made using Cho and Cho Median Effect Equation, as noted above. Efficacy is expressed as the 50% effective concentration (EC50) and drug induced toxicity as the 50% inhibitory concentration (IC50).

[2] = system: HIV-1 (RF); assay: microbe, parasite or virus in culture; details: for Efficacy testing, optical density of single wells: listed as R2K18001 (90I)
Excerpt: This assay was used to test the effectiveness of anti-HIV drug monotherapy in the established T-cell line CEM-SS infected with HIV-1RF, HIV-1IIIb, HIV-2ROD, or other cytolytic variants of HIV.
The drugs were solubilized in DMSO (dimethyl sulfoxide). […] CEM-SS cells were in logarithmic growth phase at the time of experimentation. Virus (HIV-1RF) stocks that past the necessary quality controls (killing effect on the type of cells used, limited variability, etc) were thawed and maintained on ice until required for addition.
Half-log serial dilutions of the antiviral agent or compound of the invention, H2K1001 (90i), were made in tissue culture media (RPMI 1640 without phenol red, supplemented with 10% heat inactivated fetal bovine serum, 1% L-Glutamine, 1% Pen/Strep and 50 ug/ml gentimycin). Virus, cell, drug and diluent (ethanol) controls were included for these tests. Virus was added after cells and drugs were mixed. Cell, drug, and virus containing cultures were incubated for six (6) days without additional feeding at which time the cultures were evaluated macroscopically and microscopically for cell toxicity, and the tetrazolium salt […] was added for quantitation by the colorimetric determination of formazan production (optical density).
Drug efficacy and cytotoxicity effects were determined six days after infection by the metabolic reduction of the tetrazolium salt XTT to its‘ formazan by surviving cells and was quantitated by determination of optical density at 450 nm with background subtraction at 650 nm (Tables 1-4).
The drug plate analysis reports from this assay are provided below in Tables 1-4. Calculated endpoints (EC50, etc.) were determined using Cho and Cho Median Effect Equation (Daids Virology Manual for HIV Laboratories, Compiled by The Division of Aids, National Institute of Allergy and Infectious Diseases, National Institutes of Health and Collaborating Investigators, Version January 1997).

[3] = system: gamma interferon production; assay: Gamma interferon production in spleenocyte of mice; details: versus positive control PMA-Ionomycin combination
Excerpt: Referring again to FIG. 14, activated CD8+ cells are reported to produce high levels of gamma interferon, which may be involved in the anti-HIV-1 immune responses, contributing to both control of viral spread and concomitant lymphoid follicular lyses. […] This finding may have a far-reaching implication and relevant in the restoration of immune system competence.

With O=C(OCCOCCOC(=O)c1ccccc1)c1ccccc1 [90I, diethylene glycol dibenzoate] the “Efficacy % p24 Reduction” value ([1]; 0.01 ug/ml) was 23%, the “p24 testing data, mean reading” value ([1]; 0.01 ug/ml) was 2.2023 and the “p24 testing data, single readings” value ([1]; 0.01 ug/ml) was 2.100 and 2.2130 and 2.2937. For the same compound, the “Efficacy % p24 Reduction” value ([1]; 0.03 ug/ml) was 25%, the “p24 testing data, mean reading” value ([1]; 0.03 ug/ml) was 2.1373 and the “p24 testing data, single readings” value ([1]; 0.03 ug/ml) was 2.1210 and 1.9460 and 2.3450. The “Efficacy % p24 Reduction” value ([1]; 0.10 ug/ml) was 36%, the “p24 testing data, mean reading” value ([1]; 0.10 ug/ml) was 1.8337 and the “p24 testing data, single readings” value ([1]; 0.10 ug/ml) was 1.9461 and 1.8101 and 1.7450. The “Efficacy % p24 Reduction” value ([1]; 0.33 ug/ml) was 36%, the “p24 testing data, mean reading” value ([1]; 0.33 ug/ml) was 1.8344 and the “p24 testing data, single readings” value ([1]; 0.33 ug/ml) was 1.9451 and 1.7120 and 1.8460. The “Efficacy % p24 Reduction” value ([1]; 1 ug/ml) was 53%, the “p24 testing data, mean reading” value ([1]; 1 ug/ml) was 1.3316 and the “p24 testing data, single readings” value ([1]; 1 ug/ml) was 1.4266 and 1.4567 and 1.1116. For the same compound, the “p24 testing data, mean reading” value ([1]; 3 ug/ml) was 0.3713, the “Efficacy % p24 Reduction” value ([1]; 3 ug/ml (3.2 in Table 11)) was 87% and the “p24 testing data, single readings” value ([1]; 3 ug/ml) was 0.4510 and 0.3219 and 0.3410. The “Efficacy % p24 Reduction” value ([1]; 10 ug/ml) was 95%, the “p24 testing data, mean reading” value ([1]; 10 ug/ml) was 0.1397 and the “p24 testing data, single readings” value ([1]; 10 ug/ml) was 0.1090 and 0.1220 and 0.1874. For the same compound, the “Efficacy % p24 Reduction” value ([1]; 32 ug/ml) was 94%, the “p24 testing data, mean reading” value ([1]; 32 ug/ml) was 0.1690 and the “Efficacy % p24 Reduction” value ([1]; 100 ug/ml) was 93%. For the same compound, the “p24 testing data, mean reading” value ([1]; 100 ug/ml) was 0.1946, the “p24 testing data, single readings” value ([1]; 100 ug/ml) was 0.1530 and 0.1820 and 0.2488 and the TI ([1]; HIV-1 P2 in PBMC) was “greater than 125”. For the same compound, the EC50 ([1]; HIV-1 P2 clinical isolate in PBMC, read-out: EC50) was roughly 0.8 µg/mL (≈ 2.55 µM), the EC50 ([1]; PBMC, virus printed HIV-IRF, read-out: BC50 (the source's name)) was 0.8 µg/mL (≈ 2.55 µM) and the “Efficacy % CC” value ([2]; 0.01 ug/ml) was 42 % CC. For the same compound, the “Efficacy testing, mean optical density” value ([2]; 0.01 ug/ml) was 1.0282, the “Efficacy testing, optical density of single wells” value (“Efficacy testing, optical density” below) ([2]; 0.01 ug/ml) was 0.9892 and 1.0238 and 1.0477 and the “Efficacy % CC” value ([2]; 0.03 ug/ml) was 80 % CC. The “Efficacy testing, mean optical density” value ([2]; 0.03 ug/ml) was 1.9368, the “Efficacy testing, optical density” value ([2]; 0.03 ug/ml) was 2.0839 and 1.6926 and 2.0343 and the “Efficacy % CC” value ([2]; 0.1 ug/ml) was 87 % CC. For the same compound, the “Efficacy testing, mean optical density” value ([2]; 0.1 ug/ml) was 2.1073, the “Efficacy testing, optical density” value ([2]; 0.1 ug/ml) was 2.2196 and 2.0140 and 2.0883 and the “Efficacy % CC” value ([2]; 0.3 ug/ml) was 83 % CC. For the same compound, the “Efficacy testing, mean optical density” value ([2]; 0.3 ug/ml) was 2.0091, the “Efficacy testing, optical density” value ([2]; 0.3 ug/ml) was 2.1099 and 1.8158 and 2.1016 and the “Efficacy % CC” value ([2]; 1 ug/ml) was 84 % CC. For the same compound, the “Efficacy testing, mean optical density” value ([2]; 1 ug/ml) was 2.0264, the “Efficacy testing, optical density” value ([2]; 1 ug/ml) was 2.2771 and 1.9186 and 1.8914 and the “Efficacy % CC” value ([2]; 3 ug/ml) was 84 % CC. The “Efficacy testing, mean optical density” value ([2]; 3 ug/ml) was 2.0459, the “Efficacy testing, optical density” value ([2]; 3 ug/ml) was 2.2499 and 1.9311 and 1.9576 and the “Efficacy % CC” value ([2]; 10 ug/ml) was 82 % CC. The “Efficacy testing, mean optical density” value ([2]; 10 ug/ml) was 1.9797, the “Efficacy testing, optical density” value ([2]; 10 ug/ml) was 2.0385 and 2.0038 and 1.8968 and the “Efficacy % CC” value ([2]; 33 ug/ml) was 86 % CC. For the same compound, the “Efficacy testing, mean optical density” value ([2]; 33 ug/ml) was 2.0805, the “Efficacy testing, optical density” value ([2]; 33 ug/ml) was 2.1945 and 1.9560 and 2.0909 and the “Efficacy % CC” value ([2]; 100 ug/ml) was 88 % CC. The “Efficacy testing, mean optical density” value ([2]; 100 ug/ml) was 2.1221, the “Efficacy testing, optical density” value ([2]; 100 ug/ml) was 2.2450 and 1.9588 and 2.1625 and the “therapeutic index (TI=IC50/EC50)” value ([2]; HIV-1 RF in CEM-SS) was “greater than 5000”. For the same compound, the EC50 ([2]; Human immunodeficiency virus 1, CEM-SS, read-out: 50% effective concentration (EC50), RF laboratory strain of HIV-1 in CEM-SS) was roughly 0.02 µg/mL (≈ 0.0636 µM) and the “amount of gamma interferon produced” value [3] was “equivalent to that of the positive control”.

From patent US20230321025A1, “METHOD AND COMPOUND FOR THE TREATMENT AND ELIMINATION OF AN IMMUNODEFICIENCY CONDITION” (priority 2020, published 2023)
